The results in this text go back to patent publication US5162571A, “Phenol derivatives, their production and use” (Takeda Chemical Industries, Ltd., priority 1987, dated 1992).

For this test, the target named is T1, 5-Lipoxygenase (Rattus norvegicus, UniProt P12527).
T1 construct: RBL-1 cells (rat basophilic leukemia cells); endogenous in cells; host or cells: RBL-1 (rat basophilic leukemia cells)
T1 sequence (P12527 1-673): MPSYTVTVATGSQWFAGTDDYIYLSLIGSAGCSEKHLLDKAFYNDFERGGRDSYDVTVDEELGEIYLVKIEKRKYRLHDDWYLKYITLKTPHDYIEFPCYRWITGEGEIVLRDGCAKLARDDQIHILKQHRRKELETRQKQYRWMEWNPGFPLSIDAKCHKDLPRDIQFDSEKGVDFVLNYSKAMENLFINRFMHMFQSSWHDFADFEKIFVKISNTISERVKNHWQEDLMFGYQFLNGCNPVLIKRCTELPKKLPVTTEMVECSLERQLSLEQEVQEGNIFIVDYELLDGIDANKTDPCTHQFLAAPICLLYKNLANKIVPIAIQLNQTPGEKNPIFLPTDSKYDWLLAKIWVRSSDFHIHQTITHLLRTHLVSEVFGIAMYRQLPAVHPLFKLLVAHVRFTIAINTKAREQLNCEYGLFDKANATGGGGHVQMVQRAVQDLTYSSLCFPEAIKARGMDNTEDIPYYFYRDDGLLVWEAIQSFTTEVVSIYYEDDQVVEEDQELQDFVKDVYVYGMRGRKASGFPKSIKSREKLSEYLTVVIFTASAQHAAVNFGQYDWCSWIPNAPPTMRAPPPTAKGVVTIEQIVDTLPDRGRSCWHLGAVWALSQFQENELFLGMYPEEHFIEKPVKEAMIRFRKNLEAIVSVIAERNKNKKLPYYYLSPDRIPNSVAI
The test can be described thus: 5-Lipoxygenase inhibitory activity (5-HETE production in RBL-1 cells). The format is cell-based. The conditions noted are these: read-out: Inhibitory effect on 5-HETE production (%). On the procedure:
5-Lipoxygenase inhibitory activity
Method: 10^7 RBL-1 cells (rat basophilic leukemia cells) were suspended in 0.5 ml of MCM (mast cell medium), and test solutions (made up of 0.5 ml of MCM, 50 μg of arachidonic acid, 10 μg of A-23187 (calcium ionophore) and 1 μM, 0.01 μM and 0.001 μM as the final concentration of the phenol compound, respectively) prepared previously were added respectively to the suspension, followed by reaction at 37° C. for 20 minutes. After the conclusion of the reaction, 4 ml of ethanol and 1,4-dimethoxy-2-methyl-3-(3-methoxypropyl)naphthalene as the internal reference drug were added to the reaction solution, and the mixture was shaken thoroughly and allowed to stand at room temperature for 10 minutes. Then, it was centrifuged (2000 r.p.m.) for 10 minutes, and the supernatant fluid was separated and concentrated to dryness under reduced pressure. 0.5 ml of 60% aqueous methanol was added to the concentrate, and 100 μl of the resulting solution was taken and subjected to high-performance liquid chromatography to determine the amount of 5-HETE (5-hydroxy-eicosatetraenoic acid). Determination of 5-HETE was made through measurement of an absorption at 237 nm with a UV absorption monitor.
The 5-HETE production inhibitory effect (IE) was expressed by [formula] wherein a is a peak height or peak area corrected by the peak for the internal reference when the phenol compound is not contained; b is a peak height or peak area corrected by the peak for the internal reference when the phenol compound is contained.

Regarding `Cc1c(C)c(Br)c(C)c(C(CCCCCC(=O)O)c2ccc(F)cc2)c1O` (centres unmarked) [Compound 12, 7-(5-bromo-2-hydroxy-3,4,6-trimethylphenyl)-7-(4-fluorophenyl)heptanoic acid], the inhibition at 10 µM (10^-5 M) stood at 96%. Also, under “10^-6 M”, the inhibition at 1 µM was determined as 22%.
